Legend:
HEK293sieSTAT3(wt) [1] = assay: drug sensitivity score (DSS), cytotoxicity CellTox Green (DSS (dimensionless)); higher = more cytotoxic; extreme values may be limits of the assay; conditions: 72 h; STAT3 variant: wild type
Procedure, shortened: (§1)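 Compounds were acoustically pre-plated in 384-well plates at 5 concentrations spaced by 10-fold dilutions, and HEK293 cells overexpressing wild-type or mutant STAT3 and carrying a STAT3-dependent luciferase reporter were added at 100,000 cells/ml in 20 μl. After 72 hours at 37°C and 5% CO2, the plates were read on a PHERAstar FS for CellTox Green fluorescence (485/520 nm) and then CellTiter-Glo luminescence. A drug sensitivity score derived from dose-response curve area was calculated in Breeze from values normalised to negative and positive control wells.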

HEK293sieSTAT3(Y640F) [2] = assay: as above; conditions: 72 h; STAT3 variant: Y640F (constitutively active)
Procedure, shortened: as §1

HEK293sieSTAT3(wt) [3] = assay: drug sensitivity score (DSS), viability CellTiter-Glo (DSS (dimensionless)); higher = more growth inhibition; extreme values may be limits of the assay; conditions: 72 h; STAT3 variant: wild type
Procedure, shortened: as §1

HEK293sieSTAT3(Y640F) [4] = assay: as above; conditions: 72 h; STAT3 variant: Y640F (constitutively active)
Procedure, shortened: as §1

## FC(F)(F)c1ccc(/C=C/c2nc(COc3ccc(CCCCn4ccnn4)cc3)co2)cc1 [Mubritinib] (top concentration tested 1000 nM)
HEK293sieSTAT3(wt) [1]
  drug sensitivity score: 0.57
HEK293sieSTAT3(Y640F) [2]
  drug sensitivity score: 0
HEK293sieSTAT3(wt) [3]
  drug sensitivity score: 5.94
HEK293sieSTAT3(Y640F) [4]
  drug sensitivity score: 8.41

## Cc1cc(OCc2nnc(SC3CCCC3)n2-c2cccnc2)ccc1-c1ccc(S(C)(=O)=O)cc1 [NMS-873] (top concentration tested 10000 nM)
HEK293sieSTAT3(wt) [1]
  drug sensitivity score: 7.29
HEK293sieSTAT3(Y640F) [2]
  drug sensitivity score: 6.39
HEK293sieSTAT3(wt) [3]
  drug sensitivity score: 12.5
HEK293sieSTAT3(Y640F) [4]
  drug sensitivity score: 11.8

## CCN1CCN(Cc2ccc(-c3cc4c(N[C@H](C)c5ccccc5)ncnc4[nH]3)cc2)CC1 [NVP-AEE788] (top concentration tested 2500 nM)
HEK293sieSTAT3(wt) [1]
  drug sensitivity score: 0.32
HEK293sieSTAT3(Y640F) [2]
  drug sensitivity score: 0
HEK293sieSTAT3(wt) [3]
  drug sensitivity score: 1.25
HEK293sieSTAT3(Y640F) [4]
  drug sensitivity score: 1.43

## CCN1CCN(c2ccc(Nc3cc(N(C)C(=O)Nc4c(Cl)c(OC)cc(OC)c4Cl)ncn3)cc2)CC1 [NVP-BGJ398] (top concentration tested 1000 nM)
HEK293sieSTAT3(wt) [1]
  drug sensitivity score: 2.48
HEK293sieSTAT3(Y640F) [2]
  drug sensitivity score: 0
HEK293sieSTAT3(wt) [3]
  drug sensitivity score: 0
HEK293sieSTAT3(Y640F) [4]
  drug sensitivity score: 0.2

## COc1ccc(-c2ccc3ncc4c(c3c2)n(-c2ccc(N3CCNCC3)c(C(F)(F)F)c2)c(=O)n4C)cn1 [NVP-BGT226] (top concentration tested 1000 nM)
HEK293sieSTAT3(wt) [1]
  drug sensitivity score: 9.37
HEK293sieSTAT3(Y640F) [2]
  drug sensitivity score: 4.28
HEK293sieSTAT3(wt) [3]
  drug sensitivity score: 28
HEK293sieSTAT3(Y640F) [4]
  drug sensitivity score: 24.6

## CNC(=O)c1ccc(-c2cnc3ncc(Cc4ccc5ncccc5c4)n3n2)cc1F [NVP-INC280] (top concentration tested 1000 nM)
HEK293sieSTAT3(wt) [1]
  drug sensitivity score: 0
HEK293sieSTAT3(Y640F) [2]
  drug sensitivity score: 0
HEK293sieSTAT3(wt) [3]
  drug sensitivity score: 2.77
HEK293sieSTAT3(Y640F) [4]
  drug sensitivity score: 3.02

## CC1(C)CCC(c2ccc(Cl)cc2)=C(CN2CCN(c3ccc(C(=O)NS(=O)(=O)c4ccc(N[C@H](CCN5CCOCC5)CSc5ccccc5)c(S(=O)(=O)C(F)(F)F)c4)cc3)CC2)C1 [Navitoclax] (top concentration tested 10000 nM)
HEK293sieSTAT3(wt) [1]
  drug sensitivity score: 0
HEK293sieSTAT3(Y640F) [2]
  drug sensitivity score: 0
HEK293sieSTAT3(wt) [3]
  drug sensitivity score: 0
HEK293sieSTAT3(Y640F) [4]
  drug sensitivity score: 0

## COc1nc(N)nc2c1ncn2[C@@H]1O[C@H](CO)[C@@H](O)[C@@H]1O [Nelarabine] (top concentration tested 10000 nM)
HEK293sieSTAT3(wt) [1]
  drug sensitivity score: 0
HEK293sieSTAT3(Y640F) [2]
  drug sensitivity score: 0
HEK293sieSTAT3(wt) [3]
  drug sensitivity score: 1.07
HEK293sieSTAT3(Y640F) [4]
  drug sensitivity score: 0.7

## CCOc1cc2ncc(C#N)c(Nc3ccc(OCc4ccccn4)c(Cl)c3)c2cc1NC(=O)/C=C/CN(C)C [Neratinib] (top concentration tested 1000 nM)
HEK293sieSTAT3(wt) [1]
  drug sensitivity score: 0
HEK293sieSTAT3(Y640F) [2]
  drug sensitivity score: 0
HEK293sieSTAT3(wt) [3]
  drug sensitivity score: 1.99
HEK293sieSTAT3(Y640F) [4]
  drug sensitivity score: 3.35

## Cc1cn(-c2cc(NC(=O)c3ccc(C)c(Nc4nccc(-c5cccnc5)n4)c3)cc(C(F)(F)F)c2)cn1 [Nilotinib] (top concentration tested 10000 nM)
HEK293sieSTAT3(wt) [1]
  drug sensitivity score: 0
HEK293sieSTAT3(Y640F) [2]
  drug sensitivity score: 0.16
HEK293sieSTAT3(wt) [3]
  drug sensitivity score: 3.74
HEK293sieSTAT3(Y640F) [4]
  drug sensitivity score: 3.13

## CC1(C)NC(=O)N(c2ccc([N+](=O)[O-])c(C(F)(F)F)c2)C1=O [Nilutamide] (top concentration tested 10000 nM)
HEK293sieSTAT3(wt) [1]
  drug sensitivity score: 0.74
HEK293sieSTAT3(Y640F) [2]
  drug sensitivity score: 0
HEK293sieSTAT3(wt) [3]
  drug sensitivity score: 0.69
HEK293sieSTAT3(Y640F) [4]
  drug sensitivity score: 2.68

## COC(=O)c1ccc2c(c1)NC(=O)/C2=C(\Nc1ccc(N(C)C(=O)CN2CCN(C)CC2)cc1)c1ccccc1 [Nintedanib] (top concentration tested 10000 nM)
HEK293sieSTAT3(wt) [1]
  drug sensitivity score: 6.55
HEK293sieSTAT3(Y640F) [2]
  drug sensitivity score: 3.45
HEK293sieSTAT3(wt) [3]
  drug sensitivity score: 9.79
HEK293sieSTAT3(Y640F) [4]
  drug sensitivity score: 8

## NC(=O)c1cccc2cn(-c3ccc([C@@H]4CCCNC4)cc3)nc12 [Niraparib] (top concentration tested 10000 nM)
HEK293sieSTAT3(wt) [1]
  drug sensitivity score: 9.84
HEK293sieSTAT3(Y640F) [2]
  drug sensitivity score: 1.69
HEK293sieSTAT3(wt) [3]
  drug sensitivity score: 13.3
HEK293sieSTAT3(Y640F) [4]
  drug sensitivity score: 8.57

## COc1ccc(C2=N[C@@H](c3ccc(Cl)cc3)[C@@H](c3ccc(Cl)cc3)N2C(=O)N2CCNC(=O)C2)c(OC(C)C)c1 [Nutlin-3] (top concentration tested 10000 nM)
HEK293sieSTAT3(wt) [1]
  drug sensitivity score: 0.87
HEK293sieSTAT3(Y640F) [2]
  drug sensitivity score: 0.07
HEK293sieSTAT3(wt) [3]
  drug sensitivity score: 1.15
HEK293sieSTAT3(Y640F) [4]
  drug sensitivity score: 1.89

## COc1cccc2cc(-c3nc([C@H]4CC[C@H](C(=O)O)CC4)n4ncnc(N)c34)[nH]c12 [OSI-027] (top concentration tested 10000 nM)
HEK293sieSTAT3(wt) [1]
  drug sensitivity score: 0
HEK293sieSTAT3(Y640F) [2]
  drug sensitivity score: 0
HEK293sieSTAT3(wt) [3]
  drug sensitivity score: 6.8
HEK293sieSTAT3(Y640F) [4]
  drug sensitivity score: 7.79

## O=C(Nc1ccc(OC(F)(F)F)cc1)c1sccc1NCc1ccnc2ccccc12 [OSI-930] (top concentration tested 2500 nM)
HEK293sieSTAT3(wt) [1]
  drug sensitivity score: 0
HEK293sieSTAT3(Y640F) [2]
  drug sensitivity score: 0
HEK293sieSTAT3(wt) [3]
  drug sensitivity score: 1.31
HEK293sieSTAT3(Y640F) [4]
  drug sensitivity score: 0.46

## CC(=O)c1cnc2ccc(-c3cc(Cl)c(O)c(Cl)c3)nc2c1N[C@H]1CC[C@H](CN(C)C)CC1 [OTSSP167] (top concentration tested 1000 nM)
HEK293sieSTAT3(wt) [1]
  drug sensitivity score: 5.73
HEK293sieSTAT3(Y640F) [2]
  drug sensitivity score: 5.22
HEK293sieSTAT3(wt) [3]
  drug sensitivity score: 21.2
HEK293sieSTAT3(Y640F) [4]
  drug sensitivity score: 21.1

## Cc1sc2c(c1C)C(c1ccc(Cl)cc1)=N[C@@H](CC(=O)Nc1ccc(O)cc1)c1nnc(C)n1-2 [OTX015] (top concentration tested 10000 nM)
HEK293sieSTAT3(wt) [1]
  drug sensitivity score: 10.9
HEK293sieSTAT3(Y640F) [2]
  drug sensitivity score: 3.12
HEK293sieSTAT3(wt) [3]
  drug sensitivity score: 10.5
HEK293sieSTAT3(Y640F) [4]
  drug sensitivity score: 12.2

## COC1=CC(c2cc3ccccc3[nH]2)=N/C1=C\c1[nH]c(C)cc1C [Obatoclax] (top concentration tested 10000 nM)
HEK293sieSTAT3(wt) [1]
  drug sensitivity score: 0
HEK293sieSTAT3(Y640F) [2]
  drug sensitivity score: 0
HEK293sieSTAT3(wt) [3]
  drug sensitivity score: 2.27
HEK293sieSTAT3(Y640F) [4]
  drug sensitivity score: 1.57

## O=C(c1cc(Cc2n[nH]c(=O)c3ccccc23)ccc1F)N1CCN(C(=O)C2CC2)CC1 [Olaparib] (top concentration tested 10000 nM)
HEK293sieSTAT3(wt) [1]
  drug sensitivity score: 0.67
HEK293sieSTAT3(Y640F) [2]
  drug sensitivity score: 0
HEK293sieSTAT3(wt) [3]
  drug sensitivity score: 3.58
HEK293sieSTAT3(Y640F) [4]
  drug sensitivity score: 4.22

## COC(=O)C[C@](O)(CCCC(C)(C)O)C(=O)O[C@@H]1C(OC)=C[C@]23CCCN2CCc2cc4c(cc2[C@H]13)OCO4 [Omacetaxine] (top concentration tested 10000 nM)
HEK293sieSTAT3(wt) [1]
  drug sensitivity score: 3.27
HEK293sieSTAT3(Y640F) [2]
  drug sensitivity score: 1.64
HEK293sieSTAT3(wt) [3]
  drug sensitivity score: 32.9
HEK293sieSTAT3(Y640F) [4]
  drug sensitivity score: 28.9

From the supplement of paper PMC7108870
